According to patent US20230085307A1, “PYRIDAZINONE COMPOUND AND HERBICIDE” (NISSAN CHEMICAL CORPORATION, priority 2019, published 2023):

Legend:
late watergrass = assay: Test Example 1: herbicidal activity, application before weed generation under submerged conditions (Table 16, symbol A); assay type: in vivo, late watergrass (Echinochloa oryzicola)
In short: (§1)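 Alluvial soil was flooded to 4 cm depth, weed seeds were sown mixed and 2.5-leaf rice seedlings were transplanted. On sowing day, the compound's emulsion, diluted in water to a set dose, was applied to the water surface. Plants grew at 25–30 °C and were scored 0–5 after three weeks.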

Japanese bulrush = assay: Test Example 1: herbicidal activity, application before weed generation under submerged conditions (Table 16, symbol B); assay type: in vivo, Japanese bulrush (Schoenoplectus juncoides)
In short: as §1

oval-leafed pondweed = assay: Test Example 1: herbicidal activity, application before weed generation under submerged conditions (Table 16, symbol C); assay type: in vivo, oval-leafed pondweed (Monochoria vaginalis)
In short: as §1

barnyard grass [1] = assay: Test Example 3: herbicidal effect by foliage application, Wagner pot (Table 18, symbol H); assay type: in vivo, barnyard grass (Echinochloa crus-galli)
In short: (§2)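 Plants were sown in alluvial soil held under 0.1–0.5 cm standing water and grown 14 days in a greenhouse at 25–30 °C. An emulsifiable formulation, water-diluted to the set dose, was then sprayed onto the foliage, and effects were scored three weeks later using previously defined criteria.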

Chinese sprangletop = assay: Test Example 3: herbicidal effect by foliage application, Wagner pot (Table 18, symbol D); assay type: in vivo, chinese sprangletop (Leptochloa chinensis)
In short: as §2

rice flat sedge = assay: Test Example 3: herbicidal effect by foliage application, Wagner pot (Table 18, symbol E); assay type: in vivo, rice flat sedge (Cyperus iria)
In short: as §2

southern crabgrass [2] = assay: Test Example 4: herbicidal effect by soil treatment (Table 19, symbol F); assay type: in vivo, southern crabgrass (Digitaria ciliaris)
In short: (§3)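 Applied as a water-diluted emulsion, the compound was sprayed onto soil covering newly sown seeds. Evaluation came three weeks after application, in a greenhouse held at 25° C. to 30° C.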

green foxtail [3] = assay: Test Example 4: herbicidal effect by soil treatment (Table 19, symbol G); assay type: in vivo, green foxtail (Setaria viridis)
In short: as §3

barnyard grass [4] = assay: Test Example 4: herbicidal effect by soil treatment (Table 19, symbol H); assay type: in vivo, barnyard grass (Echinochloa crus-galli)
In short: as §3

wild oat [5] = assay: Test Example 4: herbicidal effect by soil treatment (Table 19, symbol I); assay type: in vivo, wild oat (Avena fatua)
In short: as §3

blackgrass [6] = assay: Test Example 4: herbicidal effect by soil treatment (Table 19, symbol J); assay type: in vivo, blackgrass (Alopecurus myosuroides)
In short: as §3

Italian ryegrass [7] = assay: Test Example 4: herbicidal effect by soil treatment (Table 19, symbol K); assay type: in vivo, Italian ryegrass (Lolium multiflorum)
In short: as §3

windgrass [8] = assay: Test Example 4: herbicidal effect by soil treatment (Table 19, symbol L); assay type: in vivo, windgrass (Apera spica-venti)
In short: as §3

velvetleaf [9] = assay: Test Example 4: herbicidal effect by soil treatment (Table 19, symbol M); assay type: in vivo, velvetleaf (Abutilon theophrasti)
In short: as §3

redroot pigweed = assay: Test Example 4: herbicidal effect by soil treatment (Table 19, symbol N); assay type: in vivo, redroot pigweed (Amaranthus retroflexus)
In short: as §3

lambsquarters [10] = assay: Test Example 4: herbicidal effect by soil treatment (Table 19, symbol O); assay type: in vivo, lambsquarters (Chenopodium album)
In short: as §3

chickweed = assay: Test Example 4: herbicidal effect by soil treatment (Table 19, symbol P); assay type: in vivo, common chickweed (Stellaria media)
In short: as §3

persian speedwell [11] = assay: Test Example 4: herbicidal effect by soil treatment (Table 19, symbol R); assay type: in vivo, Persian speedwell (Veronica persica)
In short: as §3

southern crabgrass [12] = assay: Test Example 5: herbicidal effect by foliage application, plastic box (Table 20, symbol F); assay type: in vivo, southern crabgrass (Digitaria ciliaris); conditions: foliage application, 3 weeks after application
In short: (§4)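 Sow seeds spot-wise in sterilized diluvial soil; cover with ~1.5 cm soil. Grow 14 days in greenhouse, 25° C. to 30° C. Spray foliage with emulsion diluted to predetermined amount. Rate effect after 3 weeks.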

green foxtail [13] = assay: Test Example 5: herbicidal effect by foliage application, plastic box (Table 20, symbol G); assay type: in vivo, green foxtail (Setaria viridis); conditions: foliage application, 3 weeks after application
In short: as §4

barnyard grass [14] = assay: Test Example 5: herbicidal effect by foliage application, plastic box (Table 20, symbol H); assay type: in vivo, barnyard grass (Echinochloa crus-galli); conditions: foliage application, 3 weeks after application
In short: as §4

wild oat [15] = assay: Test Example 5: herbicidal effect by foliage application, plastic box (Table 20, symbol I); assay type: in vivo, wild oat (Avena fatua); conditions: foliage application, 3 weeks after application
In short: as §4

blackgrass [16] = assay: Test Example 5: herbicidal effect by foliage application, plastic box (Table 20, symbol J); assay type: in vivo, blackgrass (Alopecurus myosuroides); conditions: foliage application, 3 weeks after application
In short: as §4

Italian ryegrass [17] = assay: Test Example 5: herbicidal effect by foliage application, plastic box (Table 20, symbol K); assay type: in vivo, Italian ryegrass (Lolium multiflorum); conditions: foliage application, 3 weeks after application
In short: as §4

windgrass [18] = assay: Test Example 5: herbicidal effect by foliage application, plastic box (Table 20, symbol L); assay type: in vivo, windgrass (Apera spica-venti); conditions: foliage application, 3 weeks after application
In short: as §4

velvetleaf [19] = assay: Test Example 5: herbicidal effect by foliage application, plastic box (Table 20, symbol M); assay type: in vivo, velvetleaf (Abutilon theophrasti); conditions: foliage application, 3 weeks after application
In short: as §4

lambsquarters [20] = assay: Test Example 5: herbicidal effect by foliage application, plastic box (Table 20, symbol O); assay type: in vivo, lambsquarters (Chenopodium album); conditions: foliage application, 3 weeks after application
In short: as §4

persian speedwell [21] = assay: Test Example 5: herbicidal effect by foliage application, plastic box (Table 20, symbol R); assay type: in vivo, Persian speedwell (Veronica persica); conditions: foliage application, 3 weeks after application
In short: as §4

## Cc1nn(C)c(=O)c(-c2c(-c3ccc(F)cc3)sc3ccc(F)cc23)c1OC(=O)N1CCOCC1 [2-007]
Late watergrass; 320 g/ha applied herbicide
  Herbicidal effect on A: late watergrass (grade 0-5): 2 (Herbicidal rate of 20% or more and less than 40%)
Japanese bulrush; 320 g/ha applied herbicide
  Herbicidal effect on B: Japanese bulrush (grade 0-5): 0 (Herbicidal rate of 5% or less (almost no effect))
oval-leafed pondweed; 320 g/ha applied herbicide
  Herbicidal effect on C: oval-leafed pondweed (grade 0-5): 0 (Herbicidal rate of 5% or less (almost no effect))
Barnyard grass [1]; 320 g/ha
  herbicidal effect on H (barnyard grass), rating 0-5: 1 (Herbicidal rate of 5% or more and less than 20%)
Chinese sprangletop; 320 g/ha
  herbicidal effect on D (Chinese sprangletop), rating 0-5: 3 (Herbicidal rate of 40% or more and less than 70%)
Rice flat sedge; 320 g/ha
  herbicidal effect on E (rice flat sedge), rating 0-5: 3 (Herbicidal rate of 40% or more and less than 70%)
Southern crabgrass [2]; 320 g/ha
  herbicidal effect rating, F: southern crabgrass: 1 (Herbicidal rate of 5% or more and less than 20%)
Green foxtail [3]; 320 g/ha
  herbicidal effect rating, G: green foxtail: 2 (Herbicidal rate of 20% or more and less than 40%)
Barnyard grass [4]; 320 g/ha
  herbicidal effect rating, H: barnyard grass: 0 (Herbicidal rate of 5% or less (almost no effect))
Wild oat [5]; 320 g/ha
  herbicidal effect rating, I: wild oat: 0 (Herbicidal rate of 5% or less (almost no effect))
Blackgrass [6]; 320 g/ha
  herbicidal effect rating, J: blackgrass: 0 (Herbicidal rate of 5% or less (almost no effect))
Italian ryegrass [7]; 320 g/ha
  herbicidal effect rating, K: Italian ryegrass: 0 (Herbicidal rate of 5% or less (almost no effect))
Windgrass [8]; 320 g/ha
  herbicidal effect rating, L: windgrass: 0 (Herbicidal rate of 5% or less (almost no effect))
Velvetleaf [9]; 320 g/ha
  herbicidal effect rating, M: velvetleaf: 0 (Herbicidal rate of 5% or less (almost no effect))
Redroot pigweed; 320 g/ha
  herbicidal effect rating, N: redroot pigweed: 2 (Herbicidal rate of 20% or more and less than 40%)
Lambsquarters [10]; 320 g/ha
  herbicidal effect rating, O: lambsquarters: 0 (Herbicidal rate of 5% or less (almost no effect))
chickweed; 320 g/ha
  herbicidal effect rating, P: chickweed: 0 (Herbicidal rate of 5% or less (almost no effect))
Persian speedwell [11]; 320 g/ha
  herbicidal effect rating, R: persian speedwell: 0 (Herbicidal rate of 5% or less (almost no effect))
Southern crabgrass [12]; 320 g/ha
  effect on southern crabgrass (F): 0 (Herbicidal rate of 5% or less (almost no effect))
Green foxtail [13]; 320 g/ha
  effect on green foxtail (G): 0 (Herbicidal rate of 5% or less (almost no effect))
Barnyard grass [14]; 320 g/ha
  effect on barnyard grass (H): 0 (Herbicidal rate of 5% or less (almost no effect))
Wild oat [15]; 320 g/ha
  effect on wild oat (I): 0 (Herbicidal rate of 5% or less (almost no effect))
Blackgrass [16]; 320 g/ha
  effect on blackgrass (J): 0 (Herbicidal rate of 5% or less (almost no effect))
Italian ryegrass [17]; 320 g/ha
  effect on Italian ryegrass (K): 0 (Herbicidal rate of 5% or less (almost no effect))
Windgrass [18]; 320 g/ha
  effect on windgrass (L): 0 (Herbicidal rate of 5% or less (almost no effect))
Velvetleaf [19]; 320 g/ha
  effect on velvetleaf (M): 0 (Herbicidal rate of 5% or less (almost no effect))
Lambsquarters [20]; 320 g/ha
  effect on lambsquarters (O): 0 (Herbicidal rate of 5% or less (almost no effect))
Persian speedwell [21]; 320 g/ha
  effect on persian speedwell (R): 1 (Herbicidal rate of 5% or more and less than 20%)

## CC=CCOc1ccc(-c2sc3ccccc3c2-c2c(O)c(C)nn(C)c2=O)cc1 [1-211]
Late watergrass; 80 g/ha applied herbicide
  Herbicidal effect on A: late watergrass (grade 0-5): 5 (Herbicidal rate of 90% or more (almost completely withered))
Japanese bulrush; 80 g/ha applied herbicide
  Herbicidal effect on B: Japanese bulrush (grade 0-5): 3 (Herbicidal rate of 40% or more and less than 70%)
oval-leafed pondweed; 80 g/ha applied herbicide
  Herbicidal effect on C: oval-leafed pondweed (grade 0-5): 3 (Herbicidal rate of 40% or more and less than 70%)
Barnyard grass [1]; 80 g/ha
  herbicidal effect on H (barnyard grass), rating 0-5: 4 (Herbicidal rate of 70% or more and less than 90%)
Chinese sprangletop; 80 g/ha
  herbicidal effect on D (Chinese sprangletop), rating 0-5: 4 (Herbicidal rate of 70% or more and less than 90%)
Rice flat sedge; 80 g/ha
  herbicidal effect on E (rice flat sedge), rating 0-5: 4 (Herbicidal rate of 70% or more and less than 90%)
Southern crabgrass [2]; AAH 80 g/ha
  F: southern crabgrass, herbicidal effect rating: 0 (Herbicidal rate of 5% or less (almost no effect))
Green foxtail [3]; AAH 80 g/ha
  G: green foxtail, herbicidal effect rating: 0 (Herbicidal rate of 5% or less (almost no effect))
Barnyard grass [4]; AAH 80 g/ha
  H: barnyard grass, herbicidal effect rating: 0 (Herbicidal rate of 5% or less (almost no effect))
Wild oat [5]; AAH 80 g/ha
  I: wild oat, herbicidal effect rating: 0 (Herbicidal rate of 5% or less (almost no effect))
Blackgrass [6]; AAH 80 g/ha
  J: blackgrass, herbicidal effect rating: 0 (Herbicidal rate of 5% or less (almost no effect))
Italian ryegrass [7]; AAH 80 g/ha
  K: Italian ryegrass, herbicidal effect rating: 0 (Herbicidal rate of 5% or less (almost no effect))
Windgrass [8]; AAH 80 g/ha
  L: windgrass, herbicidal effect rating: 0 (Herbicidal rate of 5% or less (almost no effect))
Velvetleaf [9]; AAH 80 g/ha
  M: velvetleaf, herbicidal effect rating: 0 (Herbicidal rate of 5% or less (almost no effect))
Redroot pigweed; AAH 80 g/ha
  N: redroot pigweed, herbicidal effect rating: 3 (Herbicidal rate of 40% or more and less than 70%)
Lambsquarters [10]; AAH 80 g/ha
  O: lambsquarters, herbicidal effect rating: 0 (Herbicidal rate of 5% or less (almost no effect))
chickweed; AAH 80 g/ha
  P: chickweed, herbicidal effect rating: 0 (Herbicidal rate of 5% or less (almost no effect))
Persian speedwell [11]; AAH 80 g/ha
  R: persian speedwell, herbicidal effect rating: 0 (Herbicidal rate of 5% or less (almost no effect))
Southern crabgrass [12]; 80 g/ha
  effect on southern crabgrass (F): 3 (Herbicidal rate of 40% or more and less than 70%)
Green foxtail [13]; 80 g/ha
  effect on green foxtail (G): 5 (Herbicidal rate of 90% or more (almost completely withered))
Barnyard grass [14]; 80 g/ha
  effect on barnyard grass (H): 3 (Herbicidal rate of 40% or more and less than 70%)
Wild oat [15]; 80 g/ha
  effect on wild oat (I): 0 (Herbicidal rate of 5% or less (almost no effect))
Blackgrass [16]; 80 g/ha
  effect on blackgrass (J): 2 (Herbicidal rate of 20% or more and less than 40%)
Italian ryegrass [17]; 80 g/ha
  effect on Italian ryegrass (K): 3 (Herbicidal rate of 40% or more and less than 70%)
Windgrass [18]; 80 g/ha
  effect on windgrass (L): 0 (Herbicidal rate of 5% or less (almost no effect))
Velvetleaf [19]; 80 g/ha
  effect on velvetleaf (M): 4 (Herbicidal rate of 70% or more and less than 90%)
Lambsquarters [20]; 80 g/ha
  effect on lambsquarters (O): 5 (Herbicidal rate of 90% or more (almost completely withered))
Persian speedwell [21]; 80 g/ha
  effect on persian speedwell (R): 5 (Herbicidal rate of 90% or more (almost completely withered))
